From patent US20050014765A1, “Aryl-heteroaromatic products, compositions comprising them and use” (Aventis Pharma S.A., priority 2003, published 2005)
Structures can show the parent of a compound that is named as a salt.

What was measured:
[1] = biological target: T1, Tubulin purified from pig brains (Sus scrofa, UniProt P02550+P02554); experiment: Assessment of the inhibition of tubulin polymerization (turbidimetry at 350 nm); format: biochemical; settings: concentration which inhibits the rate of polymerization by 50%; tubulin 1 mg/ml, 37° C.; read-out: Inhibition of tubulin polymerization IC 50
T1 construct: Tubulin is purified from pig brains according to published methods; from tissue; host or cells: pig brain
T1 sequence (P02550 whole entry): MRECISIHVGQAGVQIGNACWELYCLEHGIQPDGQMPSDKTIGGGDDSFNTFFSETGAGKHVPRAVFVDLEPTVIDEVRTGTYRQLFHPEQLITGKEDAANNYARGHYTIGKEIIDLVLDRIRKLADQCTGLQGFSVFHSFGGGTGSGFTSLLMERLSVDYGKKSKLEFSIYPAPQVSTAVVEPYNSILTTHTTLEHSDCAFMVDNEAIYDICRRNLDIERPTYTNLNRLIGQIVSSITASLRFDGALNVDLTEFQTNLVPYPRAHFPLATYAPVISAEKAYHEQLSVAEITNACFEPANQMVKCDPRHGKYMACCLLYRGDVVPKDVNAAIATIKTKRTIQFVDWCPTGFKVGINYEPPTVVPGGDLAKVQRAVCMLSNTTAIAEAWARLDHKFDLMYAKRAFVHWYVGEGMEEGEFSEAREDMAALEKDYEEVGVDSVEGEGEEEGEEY
T1 sequence (P02554 whole entry): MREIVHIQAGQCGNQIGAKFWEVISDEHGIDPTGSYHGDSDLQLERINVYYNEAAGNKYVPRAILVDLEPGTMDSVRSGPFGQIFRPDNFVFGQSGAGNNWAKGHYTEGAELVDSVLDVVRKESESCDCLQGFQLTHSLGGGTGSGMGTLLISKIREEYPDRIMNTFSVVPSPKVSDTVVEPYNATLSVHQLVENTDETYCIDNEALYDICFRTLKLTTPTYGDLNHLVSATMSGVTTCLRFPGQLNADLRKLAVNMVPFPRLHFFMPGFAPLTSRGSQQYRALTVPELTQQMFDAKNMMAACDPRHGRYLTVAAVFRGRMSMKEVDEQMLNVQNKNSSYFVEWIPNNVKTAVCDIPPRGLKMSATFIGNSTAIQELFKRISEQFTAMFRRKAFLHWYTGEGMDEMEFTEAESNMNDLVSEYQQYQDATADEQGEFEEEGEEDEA
Description: Assessment of the Inhibition of Tubulin Polymerization
Tubulin is purified from pig brains according to published methods (Shelanski et al., 1973, Proc. Natl. Acad. Sci. USA, 70, 765-768. Weingarten et al., 1975, Proc. Natl. Acad. Sci. USA, 72, 1858-1862). Briefly, the brains are ground and centrifuged in an extraction buffer. The tubulin, present in the extract supernatant is subjected to two successive cycles of polymerization at 37° C. and depolymerization at 4° C., before being separated from the MAPs (Microtubule Associated Proteins) by chromatography on a phosphocellulose P11 column (Whatman). The tubulin thus isolated is more than 95% pure. It is stored in a buffer known as RB/2 30% glycerol, the composition of which is 50 mM MES-NaOH [2-(N-morpholino)ethanesulfonic acid], pH 6.8; 0.25 mM MgCl2; 0.5 mM EGTA; 30% (v/v) glycerol, 0.2 mM GTP (guanosine 5′-triphosphate).
The polymerization of the tubulin into microtubules is monitored by turbidimetry as follows: the tubulin is adjusted to a concentration of 10 μm (1 mg/ml) in the RB/2 30% glycerol buffer, to which are added 1 mM GTP and 6 mM MgCl2. The polymerization is initiated by increasing the temperature from 6° C. to 37° C. in a cuvette with a 1 cm optical pathlength, placed in a UVIKON 931 spectrophotometer (Kontron) equipped with a thermostatically-regulated cuvette holder. The increase in turbidity of the solution is monitored at 350 nm.
The products are dissolved at 10 mM in DMSO and added at variable concentrations (0.5 to 10 μm) to the tubulin solution before polymerization. The IC50 is defined as the concentration of the product which inhibits the rate of polymerization by 50%.

[2] = system: HCT116 cells; experiment: Inhibition of proliferation of the HCT116 human colon tumor line ([14C]-thymidine incorporation); format: cell-based; settings: HCT-116, 48 hours incubation at 37° C., read-out: Inhibition of HCT116 proliferation IC 50
Description: Test for Determining the Inhibition of Proliferation of the HCT116 Human Colon Tumor Line
The proliferation of HCT116 cells is evaluated by mesuring the incorporation of [^14C]-thymidine in the following way. The HCT166 cells (from the ATCC) are cultured in a DMEM medium (Gibco) which contains 10% of fetal calf serum and antibiotics (1% penicillin, 1% streptomycin). To perform the proliferation test, the cells are seeded into 96-well cytostar microplates (Amersham) at the rate of 5000 cells per well. The [^14C]-thymidine (0.1 μCi/well) and the products to be evaluated are subsequently added. Variable concentrations of products up to 10 μM are used; the DMSO (solvent used to dissolve the products) should not exceed 0.5% in the medium. 48 hours after incubation at 37° C., the radioactivity incorporated into the cells is measured by counting the plate in a Tri-Lux counter (Wallac). The IC50 is defined as the concentration of product which reduces the radioactivity by 50% compared with an untreated control. A product with an IC50 of less than 10 μm is regarded as cytotoxic.

Row | Compound | IC50 [1] | melting point | IC50 [2]
1 | NC(=O)c1cccc(N2CCN(C(=O)c3sc(N)nc3-c3ccccc3)CC2)c1 [Example 85, 3-[4-(2-Amino-4-phenyl-thiazol-5-ylcarbonyl)piperazin-1-yl]benzamide] | 0.685 µM | 236 °C | 
2 | O=C(c1[nH]cnc1-c1ccccc1)N1CCN(c2cccc(OC(F)F)c2)CC1 [Example 30, [4-(3-Difluoromethoxyphenyl)piperazin-1-yl](5-phenyl-1H-imidazol-4-yl)methanone] | 0.8 µM |  | 0.0064 µM
3 | COc1cc(OC)cc(N2CCN(C(=O)c3c(-c4ccccc4)ccn3C)CC2)c1 [Example 40, [4-(3,5-Dimethoxyphenyl)piperazin-1-yl](1-methyl-3-phenyl-1H-pyrrol-2-yl)-methanone hydrochloride] | 11.2 µM |  | 0.275 µM
4 | O=C(c1[nH]c(S)nc1-c1ccccc1)N1CCN(c2cccc(CO)c2)CC1 [Example 78, [4-(3-Hydroxymethylphenyl)piperazin-1-yl](2-mercapto-4-phenyl-1H-imidazol-5-yl)methanone] | 0.725 µM |  | 0.244 µM
5 | COc1cc(OC)cc(N2CCN(C(=O)c3nc(S)[nH]c3-c3ccccc3)CC2)c1 [Example 20, [4-(3,5-Dimethoxyphenyl)piperazin-1-yl](2-mercapto-5-phenyl-1H-imidazol-4-yl)methanone] | 0.7 µM |  | 0.0117 µM
6 | Cn1cc(C(=O)N2CCN(c3cccc(C(N)=O)c3)CC2)c(-c2ccccc2)c1 [Example 37, 3-[4-(1-Methyl-4-phenyl-1H-pyrrol-3-yl-carbonyl)piperazin-1-yl]benzamide] | 0.72 µM |  | 0.0149 µM
7 | CSc1nc(-c2ccccc2)c(C(=O)N2CCN(c3cccc(C(N)=O)c3)CC2)[nH]1 [Example 55, 3-[4-(2-Methylsulfanyl-4-phenyl-1H-imidazol-5-ylcarbonyl)piperazin-1-yl]-benzamide] | 1.38 µM |  | 0.064 µM
8 | COc1cc(OC)cc(N2CCN(C(=O)c3nc(SC)[nH]c3-c3ccccc3)CC2)c1 [Example 23, [4-(3,5-Dimethoxyphenyl)piperazin-1-yl](2-methylsulfanyl-5-phenyl-1H-imidazol-4-yl)methanone] | 0.6 µM |  | 0.0017 µM
9 | NC(=O)c1cccc(N2CCN(C(=O)c3c[nH]cc3-c3ccccc3)CC2)c1 [Example 58, 3-[4-(4-Phenyl-1H-pyrrol-3-ylcarbonyl)piperazin-1-yl]benzamide] | 4.45 µM |  | 0.334 µM
10 | COc1cc(OC)cc(N2CCN(C(=O)c3cn(Cc4cccnc4)cc3-c3ccccc3)CC2)c1 [Example 48, [4-(3,5-Dimethoxyphenyl)piperazin-1-yl][1-(pyridin-3-yl)methyl-4-phenyl-1H-pyrrol-3-yl]methanone] | 0.75 µM |  | 0.0511 µM
11 | COc1cc(OC)cc(N2CCN(C(=O)c3c[nH]cc3-c3ccccc3)CC2)c1 [Example 16, [4-(3,5-Dimethoxyphenyl)piperazin-1-yl](4-phenyl-1H-pyrrol-3-yl)methanone] | 2.4 µM |  | 0.0085 µM
12 | CC(=O)Nc1cccc(N2CCN(C(=O)c3[nH]cnc3-c3ccccc3)CC2)c1 [Example 12, [4-(3-Acetylaminophenyl)piperazin-1-yl](4-phenyl-1H-imidazol-5-yl)methanone] | 3.5 µM |  | 1.19 µM
13 | O=C(c1sccc1-c1ccccc1)N1CCN(c2cccc(Cl)c2)CC1 [Example 4, [4-(3-Chlorophenyl)piperazin-1-yl](3-phenylthiophen-2-yl)methanone] | 2 µM |  | 0.0525 µM
14 | NC(=O)c1cccc(N2CCN(C(=O)c3cncn3-c3ccccc3)CC2)c1 [Example 17, [4-(3-Carboxamidophenyl)piperazin-1-yl](1-phenyl-1H-imidazol-5-yl)methanone] | 5.5 µM |  | 0.536 µM
15 | O=C(c1[nH]cnc1-c1ccccc1)N1CCN(c2cccnc2)CC1 [Example 10, [4-(Pyridin-3-yl)piperazin-1-yl](4-phenyl-1H-imidazol-5-yl)methanone] | 3.1 µM |  | 0.0885 µM
16 | COc1cc(OC)cc(N2CCN(C(=O)c3nc(SC)n(C)c3-c3ccccc3)CC2)c1 [Example 24, [4-(3,5-Dimethoxyphenyl)piperazin-1-yl](N-methyl-2-methylsulfanyl-5-phenyl-1H-imidazol-4-yl)methanone] | 9.5 µM |  | 0.114 µM
17 | COc1cc(OC)cc(N2CCN(C(=O)c3[nH]ccc3-c3ccccc3)CC2)c1 [Example 8, [4-(3,5-Dimethoxyphenyl)piperazin-1-yl](3-phenyl-1H-pyrrol-2-yl)methanone] | 1.2 µM |  | 0.0029 µM
18 | COc1cccc(N2CCN(C(=O)c3[nH]cnc3-c3ccccc3)CC2)c1 [Example 29, [4-(3-Methoxyphenyl)piperazin-1-yl](4-phenyl-1H-imidazol-5-yl)methanone] | 0.4 µM |  | 0.003 µM
19 | CSc1nc(-c2ccccc2)c(C(=O)N2CCN(c3cccc(CO)c3)CC2)[nH]1 [Example 79, [4-(3-Hydroxymethylphenyl)piperazin-1-yl](2-methylsulfanyl-4-phenyl-1H-imidazol-5-yl)methanone] | 0.493 µM |  | 0.0117 µM
20 | NC(=O)c1cccc(N2CCN(C(=O)c3[nH]c(C(F)(F)F)nc3-c3ccccc3)CC2)c1 [Example 54, 3-[4-(2-Trifluoromethyl-4-phenyl-1H-imidazol-5-ylcarbonyl)piperazin-1-yl]-benzamide] | 1.08 µM |  | 1.89 µM
21 | Cc1nc(-c2ccccc2)c(C(=O)N2CCN(c3cccc(C#N)c3)CC2)[nH]1 [Example 60, 3-[4-(2-Methyl-5-phenyl-1H-imidazol-4-ylcarbonyl)piperazin-1-yl]benzonitrile] | 0.99 µM |  | 0.011 µM
22 | NC(=O)c1cccc(N2CCN(C(=O)c3c(-c4ccccc4)ccn3CC(=O)O)CC2)c1 [Example 73, {2-[4-(3-Carbamoylphenyl)piperazin-1-ylcarbonyl]-3-phenylpyrrol-1-yl}acetic acid] | 18.4 µM |  | 2.7 µM
23 | O=C(c1cc[nH]c1-c1ccccc1)N1CCN(c2cccc(Cl)c2)CC1 [Example 26, [4-(3-Chlorophenyl)piperazin-1-yl](2-phenyl-1H-pyrrol-3-yl)methanone] | 3.2 µM |  | 0.0752 µM
24 | O=C(c1[nH]cnc1-c1ccccc1)N1CCN(c2cccc(CO)c2)CC1 [Example 68, [4-(3-Hydroxymethylphenyl)piperazin-1-yl](4-phenyl-1H-imidazol-5-yl)methanone] | 0.48 µM |  | 0.013 µM
25 | COc1cc(OC)cc(N2CCN(C(=O)c3[nH]c(C)nc3-c3ccccc3)CC2)c1 [Example 43, [4-(3,5-Dimethoxyphenyl)piperazin-1-yl](2-methyl-5-phenyl-3H-imidazol-4-yl)methanone] | 0.6 µM |  | 0.0071 µM
26 | CSc1nc(-c2ccccc2)c(C(=O)N2CCN(c3cccc(C#N)c3)CC2)[nH]1 [Example 56, 3-[4-(2-Methylsulfanyl-4-phenyl-1H-imidazol-5-ylcarbonyl)piperazin-1-yl]-benzonitrile] | 0.415 µM |  | 0.0017 µM
27 | COc1cc(OC)cc(N2CCN(C(=O)c3cn(CCCC(=O)O)cc3-c3ccccc3)CC2)c1 [Example 46, 4-{3-[4-(3,5-Dimethoxyphenyl)piperazin-1-yl]carbonyl-4-phenyl-1H-pyrrol-1-yl}-butanoic acid] | 4.35 µM |  | 6.38 µM
28 | NC(=O)c1cccc(N2CCN(C(=O)c3[nH]cnc3-c3ccccc3)CC2)c1 [Example 22, [4-(3-Carboxamidophenyl)piperazin-1-yl](4-phenyl-1H-imidazol-5-yl)-methanone] | 1.1 µM |  | 0.193 µM
29 | COc1cc(OC)cc(N2CCN(C(=O)c3cn(C(C)=O)cc3-c3ccccc3)CC2)c1 [Example 41, 1-{3-[4-(3,5-Dimethoxyphenyl)piperazin-1-yl-carbonyl]-4-phenylpyrrol-1-yl}-ethanone] | 1.33 µM |  | 0.123 µM
